Reference: patent US8962608B2, “Cycloalkylnitrile pyrazole carboxamides as janus kinase inhibitors” (Merck Sharp & Dohme Corp., priority 2011, dated 2015)

Each compound was assayed against JAK1 (recombinant purified GST-tagged catalytic domain) (Homo sapiens (Human), UniProt P23458) (assay: biochemical).
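Also: biochemical assay with HTRF read-out.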

JAK1 (recombinant purified GST-tagged catalytic domain), sequence (P23458 875-1153): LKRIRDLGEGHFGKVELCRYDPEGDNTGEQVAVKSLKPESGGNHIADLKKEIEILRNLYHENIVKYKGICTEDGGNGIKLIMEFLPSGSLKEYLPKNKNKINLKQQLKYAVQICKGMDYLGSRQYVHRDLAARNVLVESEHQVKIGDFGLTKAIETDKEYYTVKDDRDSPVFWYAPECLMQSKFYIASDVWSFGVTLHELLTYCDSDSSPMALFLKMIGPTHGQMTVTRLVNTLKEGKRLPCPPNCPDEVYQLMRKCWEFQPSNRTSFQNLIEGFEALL

| Compound | IC50 [nM] |
| --- | --- |
| C[C@H]1C[C@H](C)N1[C@@H]1CC[C@H](n2cc(C(N)=O)c(Nc3ccc(C(F)(F)F)cc3)n2)[C@@H](C#N)C1 (single isomer, unassigned) [Example 28-20, 1-{(1S,2S,4R or 1R,2R,4S)-2-cyano-4-[(2S,4S or 2R,4R)-2,4-dimethylazetidin-1-yl]cyclohexyl}-3-{[4-(trifluoromethyl)phenyl]amino}-1H-pyrazole-4-carboxamide] | 5 |
| C[C@H]1C[C@H](C)N1[C@H]1CC[C@H](n2cc(C(N)=O)c(Nc3ccc(C(F)(F)F)cc3)n2)[C@@H](C#N)C1 (single isomer, unassigned) [Example 28-21, 1-{(1S,2S,4S or 1R,2R,4R)-2-cyano-4-[(2S,4S or 2R,4R)-2,4-dimethylazetidin-1-yl]cyclohexyl}-3-{[4-(trifluoromethyl)phenyl]amino}-1H-pyrazole-4-carboxamide] | 3 |
| N#C[C@H]1C[C@H](N2CC3(CCC3)C2)CC[C@@H]1n1cc(C(N)=O)c(Nc2ccc(C(F)(F)F)cc2)n1 (single isomer, unassigned) [Example 28-24, 1-[(1S,2S,4R or 1R,2R,4S)-4-(2-azaspiro[3.3]hept-2-yl)-2-cyanocyclohexyl]-3-{[4-(trifluoromethyl)phenyl]amino}-1H-pyrazole-4-carboxamide] | 0.6 |
| C[C@@H]1C[C@@H](C)N1[C@@H]1CC[C@H](n2cc(C(N)=O)c(Nc3ccc(C(F)(F)F)cc3)n2)[C@@H](C#N)C1 (single isomer, unassigned) [Example 28-30, 1-{(1S,2S,4R or 1R,2R,4S)-2-cyano-4-[(2R,4R or 2S,4S)-2,4-dimethylazetidin-1-yl]cyclohexyl}-3-{[4-(trifluoromethyl)phenyl]amino}-1H-pyrazole-4-carboxamide] | 15 |
| C[C@H](N[C@H]1CC[C@H](n2cc(C(N)=O)c(Nc3ccc(OC(F)F)nc3)n2)[C@@H](C#N)C1)C1CC1 (single isomer, unassigned) [Example 28-32, 1-[(1S,2S,4S or 1R,2R,4R)-2-cyano-4-{[(1S)-1-cyclopropylethyl]amino}cyclo-hexyl]-3-{[6-(difluoromethoxy)pyridin-3-yl]amino}-1H-pyrazole-4-carboxamide] | 5 |
| N#C[C@H]1C[C@H](N2CCC2)CC[C@@H]1n1cc(C(N)=O)c(Nc2ccc(CC(F)(F)F)cc2)n1 (single isomer, unassigned) [Example 28-53, 1-[(1S,2S,4R or 1R,2R,4S)-4-azetidin-1-yl-2-cyanocyclohexyl]-3-{[4-(2,2,2-trifluoroethyl)phenyl]amino}-1H-pyrazole-4-carboxamide] | 0.4 |
| N#C[C@H]1C[C@@H](N2CCC2)CC[C@@H]1n1cc(C(N)=O)c(Nc2ccc(CC(F)(F)F)cc2)n1 (single isomer, unassigned) [Example 28-69, 1-[(1S,2S,4S or 1R,2R,4R)-4-azetidin-1-yl-2-cyanocyclohexyl]-3-{[4-(2,2,2-trifluoroethyl)phenyl]amino}-1H-pyrazole-4-carboxamide] | 0.6 |
| CC(C)(C(=O)O)c1ccc(Nc2nn([C@H]3CCC(N4CCC4)C[C@@H]3C#N)cc2C(N)=O)cc1 (single isomer, unassigned) [Example 28-72, 2-[4-({1-[(1S,2S or 1R,2R)-4-azetidin-1-yl-2-cyanocyclohexyl]-4-carbamoyl-1H-pyrazol-3-yl}amino)phenyl]-2-methylpropanoic acid] | 0.45 |
| CC(C)(C(=O)O)c1ccc(Nc2nn([C@H]3CC[C@@H](N4CCC4)C[C@@H]3C#N)cc2C(N)=O)cc1 (single isomer, unassigned) [Example 28-80, 2-[4-({1-[(1S,2S,4R or 1R,2R,4S)-4-azetidin-1-yl-2-cyanocyclohexyl]-4-carbamoyl-1H-pyrazol-3-yl}amino)phenyl]-2-methylpropanoic acid] | 0.3 |
| CN(C)[C@H]1CC[C@H](n2cc(C(N)=O)c(Nc3ccc(F)cc3)n2)[C@@H](C#N)C1 (single isomer, unassigned) [Example 28-94, 1-[(1S,2S,4S or 1R,2R,4S)-2-cyano-4-(dimethylamino)cyclohexyl]-3-[(4-fluorophenyl)amino]-1H-pyrazole-4-carboxamide] | 2 |
| CN(C)[C@@H]1CC[C@H](n2cc(C(N)=O)c(Nc3ccc(OC(F)F)cc3)n2)[C@@H](C#N)C1 (single isomer, unassigned) [Example 28-95, 1-[(1S,2S,4R or 1R,2R,4S)-2-cyano-4-(dimethylamino)cyclohexyl]-3-{[4-(difluoromethoxy)phenyl]amino}-1H-pyrazole-4-carboxamide] | 1 |
| COC1CN([C@H]2CC[C@H](n3cc(C(N)=O)c(Nc4ccc(C(F)(F)F)cc4)n3)[C@@H](C#N)C2)C1 (single isomer, unassigned) [Example 28-99, 1-[(1S,2S,4S or 1R,2R,4R)-2-cyano-4-(3-methoxyazetidin-1-yl)cyclohexyl]-3-{[4-(trifluoromethyl)phenyl]amino}-1H-pyrazole-4-carboxamide] | 3 |
| CN(C)[C@H]1CC[C@H](n2cc(C(N)=O)c(Nc3ccc(F)cc3)n2)[C@@H](C#N)C1 (single isomer, unassigned) [Example 28-102, 1-[(1S,2S,4S or 1R,2R,4R)-2-cyano-4-(dimethylamino)cyclohexyl]-3-[(4-fluorophenyl)amino]-1H-pyrazole-4-carboxamide] | 1 |
| N#C[C@H]1C[C@@H](N2CCC2)CC[C@@H]1n1cc(C(N)=O)c(Nc2ccc(OC(F)F)cc2)n1 (single isomer, unassigned) [Example 28-103, 1-[(1S,2S,4S or 1R,2R,4R)-4-azetidin-1-yl-2-cyanocyclohexyl]-3-{[4-(difluoromethoxy)phenyl]amino}-1H-pyrazole-4-carboxamide] | 6 |
| CN(C)[C@H]1CC[C@H](n2cc(C(N)=O)c(Nc3ccc(OC(F)F)cc3)n2)[C@@H](C#N)C1 (single isomer, unassigned) [Example 28-104, 1-[(1S,2S,4S or 1R,2R,4R)-2-cyano-4-(dimethylamino)cyclohexyl]-3-{[4-(difluoromethoxy)phenyl]amino}-1H-pyrazole-4-carboxamide] | 0.4 |
| N#C[C@H]1C[C@@H](N2CC(F)C2)CC[C@@H]1n1cc(C(N)=O)c(Nc2ccc(C(F)(F)F)cc2)n1 (single isomer, unassigned) [Example 28-105, 1-[(1S,2S,4S or 1R,2R,4R)-2-cyano-4-(3-fluoroazetidin-1-yl)cyclohexyl]-3-{[4-(trifluoromethyl)phenyl]amino}-1H-pyrazole-4-carboxamide] | 3 |
| N#C[C@H]1C[C@@H](N2CCC2)CC[C@@H]1n1cc(C(N)=O)c(Nc2ccc(OC(F)F)cc2)n1 (single isomer, unassigned) [Example 28-108, 1-[(1S,2S,4S or 1R,2R,4R)-4-azetidin-1-yl-2-cyanocyclohexyl]-3-{[4-(difluoromethoxy)phenyl]amino}-1H-pyrazole-4-carboxamide] | 2 |
| N#C[C@H]1C[C@@H](NCC(F)(F)F)CC[C@@H]1n1cc(C(N)=O)c(Nc2ccnc(F)c2)n1 (single isomer, unassigned) [Example 28-111, 1-{(1S,2S,4S or 1R,2R,4R)-2-cyano-4-[(2,2,2-trifluoroethyl)amino]cyclohexyl}-3-[(2-fluoropyridin-4-yl)amino]-1H-pyrazole-4-carboxamide] | 1 |
| N#Cc1ccc(Nc2nn([C@H]3CC[C@H](NCC(F)F)C[C@@H]3C#N)cc2C(N)=O)cc1 (single isomer, unassigned) [Example 28-116, 1-{(1S,2S,4S or 1R,2R,4R)-2-cyano-4-[(2,2-difluoroethyl)amino]cyclohexyl}-3-[(4-cyanophenyl)amino]-1H-pyrazole-4-carboxamide] | 1 |
| CN(C)[C@H]1CC[C@H](n2cc(C(N)=O)c(Nc3ccc(Cl)cc3)n2)[C@@H](C#N)C1 (single isomer, unassigned) [Example 28-117, 3-[(4-chlorophenyl)amino]-1-[(1S,2S,4S or 1R,2R,4R)-2-cyano-4-(dimethylamino)cyclohexyl]-1H-pyrazole-4-carboxamide] | 0.55 |
| N#C[C@H]1C[C@@H](N2CCC2)CC[C@@H]1n1cc(C(N)=O)c(Nc2ccc(OC(F)F)cc2)n1 (single isomer, unassigned) [Example 28-118, 1-[(1S,2S,4S or 1R,2R,4R)-4-azetidin-1-yl-2-cyanocyclohexyl]-3-{[4-(difluoromethoxy)phenyl]amino}-1H-pyrazole-4-carboxamide] | 0.5 |
| CN(C)[C@@H]1CC[C@H](n2cc(C(N)=O)c(Nc3ccc(Cl)cc3)n2)[C@@H](C#N)C1 (single isomer, unassigned) [Example 28-125, 3-[(4-chlorophenyl)amino]-1-[(1S,2S,4R or 1R,2R,4S)-2-cyano-4-(dimethylamino)cyclohexyl]-1H-pyrazole-4-carboxamide] | 2 |
| CN(C)[C@H]1CC[C@H](n2cc(C(N)=O)c(Nc3ccc(F)cc3)n2)[C@@H](C#N)C1 (single isomer, unassigned) [Example 28-129, 1-[(1S,2S,4S or 1R,2R,4R)-2-cyano-4-(dimethylamino)cyclohexyl]-3-[(4-fluorophenyl)amino]-1H-pyrazole-4-carboxamide] | 20 |
| CC1(C)CN([C@@H]2CC[C@H](n3cc(C(N)=O)c(Nc4ccnc(F)c4)n3)[C@@H](C#N)C2)C1 (single isomer, unassigned) [Example 28-142, 1-[(1S,2S,4R or 1R,2R,4S)-2-cyano-4-(3,3-dimethylazetidin-1-yl)cyclohexyl]-3-[(2-fluoropyridin-4-yl)amino]-1H-pyrazole-4-carboxamide] | 2 |
| N#C[C@H]1C[C@H](N2CC(O)C2)CC[C@@H]1n1cc(C(N)=O)c(Nc2ccc(S(=O)(=O)C(F)(F)F)cc2)n1 (single isomer, unassigned) [Example 28-150, 1-[(1S,2S,4R or 1R,2R,4S)-2-cyano-4-(3-hydroxyazetidin-1-yl)cyclohexyl]-3-({4-[(trifluoro-methyl)sulfonyl]phenyl}amino)-1H-pyrazole-4-carboxamide] | 0.3 |
